Data set [1] concerns HL60 leukaemia cells. In words: Mitochondrial membrane potential depolarisation (DiOC6(3) fluorescence, flow cytometry). It is filed as cell-based, human. The procedure:
(§1) HL60 promyelocytic leukaemia, Jurkat T cell leukaemia cells lacking the PBR,(18) (19) (kindly provided by Dr D. E. Banker and Dr F. Applebaum, The Fred Hutchinson Cancer Research Center, USA), and BV173 leukaemia cells were maintained in exponential suspension cultures in PPMI 1640 medium supplemented with 10% fetal calf serum, 5 mM glutamine, 100 μg/ml streptomycin and 100 U/ml penicillin. Cells were grown in a humidified atmosphere of 5% CO2/95% air at 37° C. PK11195 was dissolved in ethanol at a stock concentration of 8.7 mg/ml, and added to cells at a 75 μM final concentration for 4 hours; vehicle alone was also used in medium.
(§2) A Becton Dickinson FACScan (Oxford) was used to acquire 10,000 events using forward and scatter detectors with logarithmic amplification. Lymphoid enriched gates were defined. Corresponding DiOC6(3) or CMH2DCFDA fluorescence was analysed using the FL1 (530 nm) band pass filter. Propidium iodide or ethidium fluorescence were analysed using the FL3 (620 nm) band pass filter. List mode Data was analysed using WINMDI 2.8. Fluorescence microscopy was performed using a Zeiss Axioskop four colour florescence microscope with digital capture via a computer running IPLab Spectrum software.
(§3) Cells were incubated for 20 minutes at 37° C. in the dark with the cationic lipophillic (amphipathic) probe DiOC6(3) (80 nM), then counter stained for 10 minutes with propidium iodide (20 μg/ml). DiOC6(3) is sequestered within the mitochondrial matrix due to the inner membrane potential (ΔΨm), according to the Nernst equation, dissipation leading to a reduction in mitochondrial retention and decreased cellular DiOC6(3) fluorescence. Collapse of ΔΨm was prevented by incubating cells for 30 minutes with 50 μM bongkrekic acid. Events with increased propidium iodide fluorescence were subtracted, by gating, from the DiOC6(3) histograms to eliminate dead cells, with loss of plasma membrane integrity. Dose-response curves used the calculating the proportion of DiOC6(3) low cells as the dependent variable on the ordinate. To measure MPT directly, cells were incubated with 1 μM calcein AM for 30 minutes, followed by 1 mM […]. Cobalt quenches calcein fluorescence, but cannot traverse an intact inner mitochondrial membrane to enter the mitochondrial matrix, to which calcein equilibrates. Opening of the PTPC allows cobalt to enter, reducing calcein fluorescence.
A general note: Flow cytometry measures light scatter and fluorescence of single cells or particles in a stream.

Data set [2] concerns HL60 leukaemia cells. The experiment in a line: Direct measurement of MPT by calcein/cobalt quenching. Conditions: calcein AM plus cobalt, FIG. 1D/1E. Format: cell-based, human. The procedure:
as §3

Another data set deals with HL60 cells. In words: Hydrogen peroxide generation (CMH2DCF fluorescence). It is filed as cell-based, human. The procedure: as §2
(§4) O2^−· was detected by incubating cells for 15 minutes in 5 μM dihydroethidium, which is oxidized to ethidium. To test the effect of O2^−· […] on O2^−· generation, cells were treated with 100 μM MnTBAP for 45 minutes. Hydrogen peroxide was detected by loading cells for 30 minutes with 5 μM CM-H2DCFDA, and its formation inhibited by preincubation with 500 U/ml catalase for 30 minutes (21). Dose-response curves for CM-H2DCFDA used the calculated proportion of CM-H2DCFDA high cells as the dependent variable.

The next data set relates to BV173 leukaemia cells. In words: Hydrogen peroxide generation (CMH2DCF fluorescence) in PBR-positive cells. The settings on record: PBR expressed, FIG. 3. Format: cell-based. The procedure:
as §1, with “medium. O2^−· was detected by incubating cells for 15 minutes in 5 μM dihydroethidium, which is oxidized to ethidium. […] Hydrogen peroxide was detected by loading cells for 30 minutes with 5 μM CM-H2DCFDA, and its formation inhibited by preincubation with 500 U/ml catalase for 30 minutes (21). Dose-response curves for CM-H2DCFDA used the calculated proportion of CM-H2DCFDA high cells as the dependent variable.” for “medium.”

For data set [3], the system named is Jurkat T cell leukaemia cells. In words: Hydrogen peroxide generation (CMH2DCF fluorescence) in PBR-negative cells. It is filed as cell-based. The settings on record: PBR not expressed, FIG. 3. The procedure: as §1, with “medium. O2^−· was detected by incubating cells for 15 minutes in 5 μM dihydroethidium, which is oxidized to ethidium. […] Hydrogen peroxide was detected by loading cells for 30 minutes with 5 μM CM-H2DCFDA, and its formation inhibited by preincubation with 500 U/ml catalase for 30 minutes (21). Dose-response curves for CM-H2DCFDA used the calculated proportion of CM-H2DCFDA high cells as the dependent variable.” for “medium.”

A further data set concerns leukaemia cells. In words: Superoxide generation (dihydroethidium to ethidium fluorescence). Format: cell-based. The procedure: as §2, §4
In another data set the test system is DoHH2 cells. The experiment in a line: Apoptosis induction in the presence and absence of the ROS scavenger MnTBAP. It is filed as cell-based. The settings on record: 24, 48, 72 hr, 1000 micromolar MPTP, 100 micromolar PK11195, 50 micromolar HA14-1, FIG. 5. The procedure: DoHH2 cells, a lymphoma cell line, were treated with MPTP, PK11195 and HA14-1 in the presence and absence of MnTBAP, a scavenger of ROS. […] MnTBAP inhibited MPTP-induced and PK11195-induced apoptosis, but not apoptosis induced by HA14-1. The three columns in each lane represent three time courses (L to R: 24 hr, 48 hr and 72 hr). […] The induction of apoptosis at the same time points as a result of treatment with 1000 micromolar MPTP is shown in lane “1000”.
The blockade of MPTP induction of apoptosis by MnTBAP parallels that of PK11195.
DoHH2 cells, a lymphoma cell line with high levels of the […] protein Bcl-2 due to a translocation between chromosome 14 and 18 (where the Bcl-2 gene is located), were exposed to MPTP, PK11195 and HA 14-1 in the presence and absence of the mitochondrial ROS scavenger, MnTBAP.

Data set [4] deals with primary chronic lymphatic leukaemia cells. In words: Apoptosis induction in primary leukaemia cells. It is filed as cell-based. The settings on record: primary chronic lymphatic leukaemia cells (higher NADPH oxidase than normal cells).
Data set [5] has as its system normal, non-malignant lymphocytes. In words: Apoptosis induction in normal lymphocytes. It is filed as cell-based.
For data set [6], the system named is peripheral benzodiazepine receptor (PBR). The settings on record: references 1, 2; cited from earlier work.

The text below walks through data of patent publication US20060111288A1, “Peripheral benzodiazepine receptor independent superoxide generation” (priority 2004, published 2006).

As for `CCC(C)N(C)C(=O)c1cc2ccccc2c(-c2ccccc2Cl)n1` (centres unmarked) [PK11195, 1-(2-chlorophenyl)-N-methyl-N-methyl-N-(1-methylpropyl)-isoquinoline carboxamide], the “time until reduction in DiOC6(3) fluorescence is detectable” value in the data set with HL60 leukaemia cells [1] (PK11195 treated) is at most 3 h. Besides, in the data set with HL60 leukaemia cells [1] (PK11195 treated vs control, FIG. 1A/1B), the “DiOC6(3) fluorescence (collapse of mitochondrial ΔΨm)” value is “reduction in DiOC6(3) fluorescence”. The “mitochondrial calcein fluorescence (MPT, open PTPCs)” value with HL60 leukaemia cells [2] is “quenched”. Further, the “concentration range in which CMH2DCF fluorescence increased” value in the data set on HL60 cells (HL60 cells, concentration dependent, FIG. 2A) lay within 50 to 100 µM. Moreover, the “CMH2DCF fluorescence (generation of H202)” value (in the data set with BV173 leukaemia cells; in [3]) was “increase in CMH2DCF fluorescence” in each case. The “ethidium fluorescence (O2−· generation)” value with leukaemia cells (following PK11195 treatment vs control, FIG. 4A) was “early increase in ethidium fluorescence”. Also, the “effect of MnTBAP on apoptosis induced by the compound” value (“effect of MnTBAP on apoptosis induced” below) in the data set with DoHH2 cells is recorded as “inhibited”. Further, the induction of apoptosis result in data set [4] is listed as “induces apoptosis”; in data set [5], “does not do so”. For the same molecule, the “binding affinity to the PBR” value in data set [6] is “nanomolar”.
For the molecule `O=C(O)c1ccc(C2=C3C=CC(=N3)C(c3ccc(C(=O)O)cc3)=c3ccc([nH]3)=C(c3ccc(C(=O)O)cc3)c3ccc([n-]3)C(c3ccc(C(=O)O)cc3)c3ccc2[n-]3)cc1.[Cl-].[Mn+3]` (centres unmarked) [MnTBAP, Manganese (III) tetrakis (4-benzoic acid) porphyrin chloride], in the data set with HL60 leukaemia cells [1] (presence vs absence of MnTBAP, FIG. 4C), the “effect on rate of PK11195 induced mitochondrial depolarisation (rate of reduction of DiOC6(3) fluorescence)” value is “Reduction in the rate of inner mitochondrial membrane depolarisation”. In the data set with leukaemia cells (100 μM MnTBAP, FIG. 4B), the “effect on PK11195 induced increase in ethidium fluorescence” value was “inhibited”.
Regarding `CCOC(=O)C1=C(N)Oc2ccc(Br)cc2C1C(C#N)C(=O)OCC` (centres unmarked) [HA14-1], the “effect of MnTBAP on apoptosis induced” value with DoHH2 cells is on record as “not blocked”.
On to `CO[C@H](C/C=C\C=C\CC/C=C/C[C@H](C)/C=C/C(=C\C(=O)O)CC(=O)O)/C(C)=C\C=C(/C)C(=O)O` [BA, Bongkrekic acid], for which the “effect of inhibitor on PK11195 mediated mitochondrial depolarisation” value in the data set with HL60 leukaemia cells [1] (pre-treatment with 50 μM bongkrekic acid for 30 minutes, FIG. 1C) was “prevented”.
Regarding `CN1CC=C(c2ccccc2)CC1` [MPTP, 1-methyl-4-phenyl-1,2,3,6-tefrahydropyridine], the “effect of MnTBAP on apoptosis induced” value in the data set with DoHH2 cells was “inhibited”.
In the case of catalase, in the data set on HL60 cells (HL60 cells preincubated with catalase 500 U/ml, FIG. 2B), the “effect on PK11195 induced increase in CMH2DCF fluorescence” value is listed as “inhibited”.
